Measurements: US20130230485A1, “Methods for Treating Patients Undergoing Multi-Cycle Chemotherapy” (priority 2012, published 2013)
“Also recorded” adds a separate entry of the source.

Assays:
[1] = test system: patients with recurrent ovarian cancer receiving gemcitabine and a platin; test: Phase 2 study: pharmacodynamic effects on peripheral platelet counts and ANC; format: in vivo, human
Description: (§1) Following Institutional Review Board protocol approval and patient signature of an informed consent form, eligible patients were randomized in a 1:1:1 ratio to receive 100 mcg/kg/day TXA127, 300 mcg/kg/day TXA127, or placebo with gemcitabine plus carboplatin or cisplatin. The randomization was stratified by the patients' intended chemotherapy regimen (see below). The Investigator, patient, and Sponsor were blinded to the treatment assignment. Treatment consisted of up to six consecutive 21-day cycles of one of the following chemotherapy regimens:
(§2) Regimen A • Intravenous cisplatin therapy at a dose between 30 and 50 mg/m^2 (inclusive) given on Day 1 of the cycle • Intravenous gemcitabine at a dose of 800 mg/m^2 given on Day 1 after cisplatin and on Day 8 of the cycle • Regimen B • Intravenous gemcitabine at a dose of 1,000 mg/m^2 given on Days 1 and 8 of the cycle • Intravenous carboplatin AUC range of 4-6 given on Day 1 of the cycle after gemcitabine
(§3) Study drug (TXA127 or placebo) was administered subcutaneously during each treatment cycle once daily for 5 consecutive days following the first chemotherapy agent (Days 2-6) and for 7 consecutive days following the second chemotherapy agent (Days 9-15). At Baseline, End-of-Treatment and weekly throughout each treatment cycle, blood specimens were collected for determination of hematologic variables. Hematologic responses were evaluated based on the National Cancer Institute Common Terminology Criteria for Adverse Events (NCl-CTCAE), Version 3.0.
The following parameters were evaluated to assess the pharmacodynamic effects of TXA127 on peripheral platelet counts: nadir platelet count, maximal platelet count, and maximum percentage increase and decrease from baseline.

[2] = test system: patients with recurrent ovarian cancer receiving gemcitabine and a platin; test: Phase 2 study: adverse events / safety analysis; format: in vivo, human
Description: as §1, §2, §3
Thirty-two patients who underwent randomization were included in the efficacy analysis according to their randomly assigned treatment group (intention-to-treat principle). Two additional patients were excluded from this analysis: one patient treated with 100 mcg/kg TXA127 was excluded due to consent withdrawal and one patient treated with 300 mcg/kg TXA127 was excluded due to disease progression. Both patients initiated a single cycle of chemotherapy and had no study drug-related adverse events. All patients were included in the safety analysis.

**Q.** How did the “ANC relative to placebo (in words)” value ([1]; 100 mcg/kg TXA127) turn out when `CC[C@H](C)[C@H](NC(=O)[C@H](Cc1ccc(O)cc1)NC(=O)[C@@H](NC(=O)[C@H](CCCNC(=N)N)NC(=O)[C@@H](N)CC(=O)O)C(C)C)C(=O)N[C@@H](Cc1c[nH]cn1)C(=O)N1CCC[C@H]1C(=O)O` [TXA127, Asp-Arg-Val-Tyr-Ile-His-Pro] was run?
**A.** decrease in the nadir ANC relative to placebo; also recorded: significant reduction in ANC

**Q.** What about the “maximal percentage decrease in ANC post-baseline” value ([1]; 100 mcg/kg TXA127) of the same compound?
**A.** 85%

**Q.** And the “maximal percentage decrease in ANC post-baseline” value ([1]; 300 mcg/kg TXA127)?
**A.** 78%

**Q.** What about the “Frequency of Adverse Events: Abdominal Distension” value ([2]; 100 mcg group (11 patients)) of the same compound?
**A.** 1

**Q.** What about the “Frequency of Adverse Events: Abdominal Pain” value ([2]; 100 mcg group (11 patients)) of the same compound?
**A.** 4

**Q.** And the “Frequency of Adverse Events: Anaemia” value ([2]; 100 mcg group (11 patients))?
**A.** 4

**Q.** And the “Frequency of Adverse Events: Arthralgia” value ([2]; 100 mcg group (11 patients))?
**A.** 1

**Q.** And the “Frequency of Adverse Events: Back Pain” value ([2]; 100 mcg group (11 patients))?
**A.** 5

**Q.** What about the “Frequency of Adverse Events: Constipation” value ([2]; 100 mcg group (11 patients)) of the same compound?
**A.** 7

**Q.** And the “Frequency of Adverse Events: Cough” value ([2]; 100 mcg group (11 patients))?
**A.** 0

**Q.** What about the “Frequency of Adverse Events: Decreased Appetite” value ([2]; 100 mcg group (11 patients)) of the same compound?
**A.** 3

**Q.** And the “Frequency of Adverse Events: Dizziness” value ([2]; 100 mcg group (11 patients))?
**A.** 3

**Q.** What about the “Frequency of Adverse Events: Dyspepsia” value ([2]; 100 mcg group (11 patients)) of the same compound?
**A.** 4

**Q.** And the “Frequency of Adverse Events: Dyspnea” value ([2]; 100 mcg group (11 patients))?
**A.** 0

**Q.** What about the “Frequency of Adverse Events: Dysuria” value ([2]; 100 mcg group (11 patients)) of the same compound?
**A.** 2

**Q.** And the “Frequency of Adverse Events: Epistaxis” value ([2]; 100 mcg group (11 patients))?
**A.** 0

**Q.** What about the “Frequency of Adverse Events: Fatigue” value ([2]; 100 mcg group (11 patients)) of the same compound?
**A.** 6

**Q.** And the “Frequency of Adverse Events: Headache” value ([2]; 100 mcg group (11 patients))?
**A.** 5

**Q.** And the “Frequency of Adverse Events: Hypersensitivity” value ([2]; 100 mcg group (11 patients))?
**A.** 1

**Q.** What about the “Frequency of Adverse Events: Leukopenia” value ([2]; 100 mcg group (11 patients)) of the same compound?
**A.** 3

**Q.** What about the “Frequency of Adverse Events: Nausea” value ([2]; 100 mcg group (11 patients)) of the same compound?
**A.** 7

**Q.** What about the “Frequency of Adverse Events: Neutropenia” value ([2]; 100 mcg group (11 patients)) of the same compound?
**A.** 5

**Q.** And the “Frequency of Adverse Events: Oropharyngeal Pain” value ([2]; 100 mcg group (11 patients))?
**A.** 1

**Q.** And the “Frequency of Adverse Events: Pyrexia” value ([2]; 100 mcg group (11 patients))?
**A.** 3

**Q.** What about the “Frequency of Adverse Events: Rash” value ([2]; 100 mcg group (11 patients)) of the same compound?
**A.** 1

**Q.** What about the “Frequency of Adverse Events: Thrombocytopenia” value ([2]; 100 mcg group (11 patients)) of the same compound?
**A.** 5

**Q.** And the “Frequency of Adverse Events: Vomiting” value ([2]; 100 mcg group (11 patients))?
**A.** 4

**Q.** And the thrombocytosis following treatment ([2]; 100 mcg/kg TXA127)?
**A.** One patient experienced thrombocytosis

**Q.** What about the “patients who discontinued study drug due to a treatment-emergent adverse event” value ([2]; 100 mcg/kg group) of the same compound?
**A.** Two

**Q.** And the “Frequency of Adverse Events: Abdominal Distension” value ([2]; 300 mcg group (13 patients))?
**A.** 4

**Q.** And the “Frequency of Adverse Events: Abdominal Pain” value ([2]; 300 mcg group (13 patients))?
**A.** 1

**Q.** What about the “Frequency of Adverse Events: Anaemia” value ([2]; 300 mcg group (13 patients)) of the same compound?
**A.** 5

**Q.** What about the “Frequency of Adverse Events: Arthralgia” value ([2]; 300 mcg group (13 patients)) of the same compound?
**A.** 1

**Q.** And the “Frequency of Adverse Events: Back Pain” value ([2]; 300 mcg group (13 patients))?
**A.** 5

**Q.** What about the “Frequency of Adverse Events: Constipation” value ([2]; 300 mcg group (13 patients)) of the same compound?
**A.** 5

**Q.** What about the “Frequency of Adverse Events: Cough” value ([2]; 300 mcg group (13 patients)) of the same compound?
**A.** 2

**Q.** What about the “Frequency of Adverse Events: Decreased Appetite” value ([2]; 300 mcg group (13 patients)) of the same compound?
**A.** 0

**Q.** What about the “Frequency of Adverse Events: Dizziness” value ([2]; 300 mcg group (13 patients)) of the same compound?
**A.** 3

**Q.** What about the “Frequency of Adverse Events: Dyspepsia” value ([2]; 300 mcg group (13 patients)) of the same compound?
**A.** 2

**Q.** What about the “Frequency of Adverse Events: Dyspnea” value ([2]; 300 mcg group (13 patients)) of the same compound?
**A.** 5

**Q.** What about the “Frequency of Adverse Events: Dysuria” value ([2]; 300 mcg group (13 patients)) of the same compound?
**A.** 1

**Q.** And the “Frequency of Adverse Events: Epistaxis” value ([2]; 300 mcg group (13 patients))?
**A.** 1

**Q.** What about the “Frequency of Adverse Events: Fatigue” value ([2]; 300 mcg group (13 patients)) of the same compound?
**A.** 7

**Q.** And the “Frequency of Adverse Events: Headache” value ([2]; 300 mcg group (13 patients))?
**A.** 5

**Q.** What about the “Frequency of Adverse Events: Hypersensitivity” value ([2]; 300 mcg group (13 patients)) of the same compound?
**A.** 2

**Q.** What about the “Frequency of Adverse Events: Leukopenia” value ([2]; 300 mcg group (13 patients)) of the same compound?
**A.** 2

**Q.** What about the “Frequency of Adverse Events: Nausea” value ([2]; 300 mcg group (13 patients)) of the same compound?
**A.** 9

**Q.** And the “Frequency of Adverse Events: Neutropenia” value ([2]; 300 mcg group (13 patients))?
**A.** 8

**Q.** And the “Frequency of Adverse Events: Oropharyngeal Pain” value ([2]; 300 mcg group (13 patients))?
**A.** 1

**Q.** What about the “Frequency of Adverse Events: Pyrexia” value ([2]; 300 mcg group (13 patients)) of the same compound?
**A.** 2

**Q.** And the “Frequency of Adverse Events: Rash” value ([2]; 300 mcg group (13 patients))?
**A.** 5

**Q.** What about the “Frequency of Adverse Events: Thrombocytopenia” value ([2]; 300 mcg group (13 patients)) of the same compound?
**A.** 2

**Q.** What about the “Frequency of Adverse Events: Vomiting” value ([2]; 300 mcg group (13 patients)) of the same compound?
**A.** 5

**Q.** What about the “patients who discontinued study drug due to a treatment-emergent adverse event” value ([2]; 300 mcg/kg group) of the same compound?
**A.** Two

**Q.** What about the “safety with these chemotherapy regimens” value ([2]; up to 6 cycles of gemcitabine + platin) of the same compound?
**A.** The safety of TXA127 was demonstrated
